Data taken from BindingDB's records for doi:10.3109/14756366.2013.827678 (Qingdao University, 2014).
Where “and” joins values, the source holds several entries; their conditions need not be identical. Identical values can stand only once.

The molecules below were run against T1, Histone deacetylase 8 (Homo sapiens, UniProt Q9BY41) (assay: Enzyme inhibition assay).
T1 sequence (Q9BY41 whole entry): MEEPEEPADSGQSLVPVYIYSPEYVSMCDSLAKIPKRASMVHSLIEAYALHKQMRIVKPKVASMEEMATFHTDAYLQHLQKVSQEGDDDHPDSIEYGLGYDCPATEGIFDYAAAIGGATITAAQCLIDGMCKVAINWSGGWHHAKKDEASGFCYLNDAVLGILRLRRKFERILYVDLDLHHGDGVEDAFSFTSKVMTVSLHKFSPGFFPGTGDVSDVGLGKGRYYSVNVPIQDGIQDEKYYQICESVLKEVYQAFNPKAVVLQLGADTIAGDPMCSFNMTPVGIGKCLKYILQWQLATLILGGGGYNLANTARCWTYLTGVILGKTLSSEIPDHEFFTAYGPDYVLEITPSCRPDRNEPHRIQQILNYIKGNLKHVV
Procedure: The nucleus extract […] HDAC8 enzyme was expressed in Escherichia coli. Boc-Lys (acetyl)-AMC was used as the substrate of HDAC. SAHA which is the HDAC inhibitor on market was used as a positive control. The compounds were diluted to six concentrations (25, 5, 1, 0.2, 0.04 and 0.008 uM/L) to investigate their ability of inhibiting HDAC activity.

| IC50 | SMILES |
| --- | --- |
| 1320 nM | Cc1cccc(NC(=O)[C@@H](NC(=O)Nc2ccc(C(=O)NCCCCCC(=O)NO)cc2)c2ccccc2)c1 [(S)-N-(6-(hydroxyamino)-6-oxohexyl)-4-(3-(2-oxo-1-phenyl-2-(m-tolylamino)ethyl)ureido)benzamide (L18)] |
| 1520 nM | CC(C)(C)OC(=O)NC(C(=O)Nc1ccc(C(=O)NO)cc1)c1ccccc1 (configuration not stated) [phenylglycine containing lead compound (4h)] |
| 1870 nM | Cc1ccc(NC(=O)[C@@H](NC(=O)Nc2ccc(C(=O)NCCCCCC(=O)NO)cc2)c2ccccc2)cc1 [(S)-N-(6-(hydroxyamino)-6-oxohexyl)-4-(3-(2-oxo-1-phenyl-2-(p-tolylamino)ethyl)ureido)benzamide (L9)] |
| 1770 nM | COc1ccccc1NC(=O)[C@@H](NC(=O)Nc1ccc(C(=O)NCCCCCC(=O)NO)cc1)c1ccccc1 [(S)-N-(6-(hydroxyamino)-6-oxohexyl)-4-(3-(2-((2-methoxyphenyl)amino)-2-oxo-1-phenylethyl)ureido)benzamide (L10)] |
| 1300 nM | O=C(CCCCCNC(=O)c1ccc(NC(=O)N[C@H](C(=O)Nc2ccccc2O)c2ccccc2)cc1)NO [(S)-N-(6-(hydroxyamino)-6-oxohexyl)-4-(3-(2-((2-hydroxyphenyl)amino)-2-oxo-1-phenylethyl)ureido)benzamide (L11)] |
| 967 nM | O=C(CCCCCNC(=O)c1ccc(NC(=O)N[C@H](C(=O)Nc2cccc(C(F)(F)F)c2)c2ccccc2)cc1)NO [(S)-N-(6-(hydroxyamino)-6-oxohexyl)-4-(3-(2-oxo-1-phenyl-2-((3-(trifluoromethyl)phenyl)amino)ethyl)ureido)benzamide (L8)] |
| 1340 nM | Cc1ccccc1NC(=O)[C@@H](NC(=O)Nc1ccc(C(=O)NCCCCCC(=O)NO)cc1)c1ccccc1 [(S)-N-(6-(hydroxyamino)-6-oxohexyl)-4-(3-(2-oxo-1-phenyl-2-(o-tolylamino)ethyl)ureido)benzamide (L6)] |

Continued, molecule first:

| SMILES | IC50 |
| --- | --- |
| O=C(CCCCCNC(=O)c1ccc(NC(=O)N[C@H](C(=O)Nc2ccco2)c2ccccc2)cc1)NO [(S)-4-(3-(2-(furan-2-ylamino)-2-oxo-1-phenylethyl)ureido)-N-(6-(hydroxyamino)-6-oxohexyl)benzamide (L5)] | 1460 nM |
| O=C(CCCCCNC(=O)c1ccc(NC(=O)N[C@H](C(=O)Nc2ccc(Cl)cc2Cl)c2ccccc2)cc1)NO [(S)-4-(3-(2-((2,4-dichlorophenyl)amino)-2-oxo-1-phenylethyl)ureido)-N-(6-(hydroxyamino)-6-oxohexyl)benzamide (L19)] | 1570 nM |
| O=C(CCCCCNC(=O)c1ccc(NC(=O)N[C@H](C(=O)Nc2cccc(Cl)c2)c2ccccc2)cc1)NO [(S)-4-(3-(2-((3-chlorophenyl)amino)-2-oxo-1-phenylethyl)ureido)-N-(6-(hydroxyamino)-6-oxohexyl)benzamide (L12)] | 1280 nM |
| Cc1cc(C)cc(NC(=O)[C@@H](NC(=O)Nc2ccc(C(=O)NCCCCCC(=O)NO)cc2)c2ccccc2)c1 [(S)-4-(3-(2-((3,5-dimethylphenyl)amino)-2-oxo-1-phenylethyl)ureido)-N-(6-(hydroxyamino)-6-oxohexyl)benzamide (L13)] | 1660 nM |
| CC(C)c1cccc(C(C)C)c1NC(=O)[C@@H](NC(=O)Nc1ccc(C(=O)NCCCCCC(=O)NO)cc1)c1ccccc1 [(S)-4-(3-(2-((2,6-diisopropylphenyl)amino)-2-oxo-1-phenylethyl)ureido)-N-(6-(hydroxyamino)-6-oxohexyl)benzamide (L17)] | 1790 nM |
| O=C(CCCCCNC(=O)c1ccc(NC(=O)N[C@H](C(=O)Nc2ccc(F)cc2)c2ccccc2)cc1)NO [(S)-4-(3-(2-((4-fluorophenyl)amino)-2-oxo-1-phenylethyl)ureido)-N-(6-(hydroxyamino)-6-oxohexyl)benzamide (L3)] | 1770 nM |
| O=C(CCCCCNC(=O)c1ccc(NC(=O)N[C@H](C(=O)Nc2ccccc2F)c2ccccc2)cc1)NO [(S)-4-(3-(2-((2-fluorophenyl)amino)-2-oxo-1-phenylethyl)ureido)-N-(6-(hydroxyamino)-6-oxohexyl)benzamide (L2)] | 1320 nM |
| O=C(CCCCCNC(=O)c1ccc(NC(=O)N[C@H](C(=O)NCc2ccc(F)cc2)c2ccccc2)cc1)NO [(S)-4-(3-(2-((4-fluorobenzyl)amino)-2-oxo-1-phenylethyl)ureido)-N-(6-(hydroxyamino)-6-oxohexyl)benzamide (L15)] | 1070 nM and 1210 nM |
| CC(C)(C)c1ccc(NC(=O)[C@@H](NC(=O)Nc2ccc(C(=O)NCCCCCC(=O)NO)cc2)c2ccccc2)cc1 [(S)-4-(3-(2-((4-(tert-butyl)phenyl)amino)-2-oxo-1-phenylethyl)ureido)-N-(6-(hydroxyamino)-6-oxohexyl)benzamide (L4)] | 2340 nM |
| O=C(CCCCCNC(=O)c1ccc(NC(=O)N[C@H](C(=O)NCc2ccccc2)c2ccccc2)cc1)NO [(S)-4-(3-(2-(benzylamino)-2-oxo-1-phenylethyl)ureido)-N-(6-(hydroxyamino)-6-oxohexyl)benzamide (L1)] | 1510 nM |
